Assay results published in paper PMC5209244 (Bioorganic & medicinal chemistry, 2016).
Where a name gives a salt, the structure may show the parent alone.

Legend:
SERT = SERT (Homo sapiens, UniProt P31645); experiment: NIMH-PDSP radioligand binding, serotonin transporter
5-HT2CR = molecular target: T1, 5-HT2CR (Homo sapiens, UniProt P28335); experiment: NIMH-PDSP radioligand binding, 5-HT2C receptor
T1 sequence (P28335 33-458): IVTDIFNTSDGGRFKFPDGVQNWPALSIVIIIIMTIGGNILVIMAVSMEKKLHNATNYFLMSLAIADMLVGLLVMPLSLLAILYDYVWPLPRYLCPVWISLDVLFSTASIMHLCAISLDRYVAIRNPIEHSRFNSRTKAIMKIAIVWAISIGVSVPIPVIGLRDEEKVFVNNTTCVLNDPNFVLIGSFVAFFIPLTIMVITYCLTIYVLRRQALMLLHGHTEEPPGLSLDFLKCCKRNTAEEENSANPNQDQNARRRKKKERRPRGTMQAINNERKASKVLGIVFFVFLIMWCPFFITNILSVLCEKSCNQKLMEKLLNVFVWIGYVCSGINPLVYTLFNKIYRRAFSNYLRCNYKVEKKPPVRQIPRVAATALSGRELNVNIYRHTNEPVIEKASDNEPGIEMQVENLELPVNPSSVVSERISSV

5-HT2AR = 5-HT2AR (Homo sapiens, UniProt P28223); experiment: NIMH-PDSP radioligand binding, 5-HT2A receptor
Sequence of 5-HT2AR (P28223 whole entry): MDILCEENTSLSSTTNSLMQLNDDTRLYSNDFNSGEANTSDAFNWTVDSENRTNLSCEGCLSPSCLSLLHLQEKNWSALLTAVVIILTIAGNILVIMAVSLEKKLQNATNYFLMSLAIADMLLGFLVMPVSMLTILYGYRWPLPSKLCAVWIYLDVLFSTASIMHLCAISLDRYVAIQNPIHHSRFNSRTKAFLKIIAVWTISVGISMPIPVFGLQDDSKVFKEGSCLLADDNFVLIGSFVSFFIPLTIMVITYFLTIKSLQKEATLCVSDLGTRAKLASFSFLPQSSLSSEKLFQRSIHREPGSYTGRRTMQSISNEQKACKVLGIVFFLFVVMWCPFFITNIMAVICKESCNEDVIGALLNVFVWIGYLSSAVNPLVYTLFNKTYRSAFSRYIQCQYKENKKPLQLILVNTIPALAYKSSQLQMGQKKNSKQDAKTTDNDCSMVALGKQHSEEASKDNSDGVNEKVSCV

H1R = H1R (Homo sapiens, UniProt P35367); experiment: NIMH-PDSP radioligand binding, histamine H1 receptor
Sequence of H1R (P35367 whole entry): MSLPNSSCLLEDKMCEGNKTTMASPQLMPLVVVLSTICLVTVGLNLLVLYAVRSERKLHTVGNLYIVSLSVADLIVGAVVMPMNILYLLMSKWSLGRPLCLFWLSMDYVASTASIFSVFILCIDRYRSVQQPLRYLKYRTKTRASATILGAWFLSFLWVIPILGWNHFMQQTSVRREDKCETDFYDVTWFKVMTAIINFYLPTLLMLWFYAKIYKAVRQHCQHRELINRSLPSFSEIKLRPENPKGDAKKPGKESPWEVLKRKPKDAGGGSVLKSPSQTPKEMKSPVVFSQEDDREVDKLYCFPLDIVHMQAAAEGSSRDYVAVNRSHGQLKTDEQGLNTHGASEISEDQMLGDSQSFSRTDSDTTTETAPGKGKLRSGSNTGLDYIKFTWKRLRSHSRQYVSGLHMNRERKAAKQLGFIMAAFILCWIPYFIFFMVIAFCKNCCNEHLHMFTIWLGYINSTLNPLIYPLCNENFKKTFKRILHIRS

5-HT7R = 5-HT7R (Homo sapiens, UniProt P34969); experiment: NIMH-PDSP radioligand binding, 5-HT7 receptor
Sequence of 5-HT7R (P34969 whole entry): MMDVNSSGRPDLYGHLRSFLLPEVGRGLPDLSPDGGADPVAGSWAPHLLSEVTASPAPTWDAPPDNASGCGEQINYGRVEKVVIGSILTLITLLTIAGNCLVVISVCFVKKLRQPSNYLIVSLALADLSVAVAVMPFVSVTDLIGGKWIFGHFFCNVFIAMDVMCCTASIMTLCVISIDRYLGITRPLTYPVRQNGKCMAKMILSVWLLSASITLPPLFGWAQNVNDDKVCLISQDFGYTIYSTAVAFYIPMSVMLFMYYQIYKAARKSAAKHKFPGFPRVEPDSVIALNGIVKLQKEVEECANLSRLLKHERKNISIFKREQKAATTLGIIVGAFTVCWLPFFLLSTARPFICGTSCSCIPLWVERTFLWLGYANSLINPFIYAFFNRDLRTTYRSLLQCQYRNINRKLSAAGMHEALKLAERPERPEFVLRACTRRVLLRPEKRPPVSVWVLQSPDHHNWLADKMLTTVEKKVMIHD

5-HT1AR = 5-HT1AR (Homo sapiens, UniProt P08908); experiment: NIMH-PDSP radioligand binding, 5-HT1A receptor
Sequence of 5-HT1AR (P08908 whole entry): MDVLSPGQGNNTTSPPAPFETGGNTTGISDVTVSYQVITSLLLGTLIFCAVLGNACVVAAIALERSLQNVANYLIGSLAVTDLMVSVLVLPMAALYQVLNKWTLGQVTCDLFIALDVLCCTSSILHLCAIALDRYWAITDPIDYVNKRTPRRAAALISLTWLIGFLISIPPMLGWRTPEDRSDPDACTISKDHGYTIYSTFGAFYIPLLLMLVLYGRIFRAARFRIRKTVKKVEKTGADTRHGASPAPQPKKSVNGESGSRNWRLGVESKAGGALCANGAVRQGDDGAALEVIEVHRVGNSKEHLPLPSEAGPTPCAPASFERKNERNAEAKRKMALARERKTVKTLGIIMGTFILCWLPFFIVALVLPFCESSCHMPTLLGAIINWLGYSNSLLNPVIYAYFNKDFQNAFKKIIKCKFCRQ

Sequence of SERT (P31645 whole entry): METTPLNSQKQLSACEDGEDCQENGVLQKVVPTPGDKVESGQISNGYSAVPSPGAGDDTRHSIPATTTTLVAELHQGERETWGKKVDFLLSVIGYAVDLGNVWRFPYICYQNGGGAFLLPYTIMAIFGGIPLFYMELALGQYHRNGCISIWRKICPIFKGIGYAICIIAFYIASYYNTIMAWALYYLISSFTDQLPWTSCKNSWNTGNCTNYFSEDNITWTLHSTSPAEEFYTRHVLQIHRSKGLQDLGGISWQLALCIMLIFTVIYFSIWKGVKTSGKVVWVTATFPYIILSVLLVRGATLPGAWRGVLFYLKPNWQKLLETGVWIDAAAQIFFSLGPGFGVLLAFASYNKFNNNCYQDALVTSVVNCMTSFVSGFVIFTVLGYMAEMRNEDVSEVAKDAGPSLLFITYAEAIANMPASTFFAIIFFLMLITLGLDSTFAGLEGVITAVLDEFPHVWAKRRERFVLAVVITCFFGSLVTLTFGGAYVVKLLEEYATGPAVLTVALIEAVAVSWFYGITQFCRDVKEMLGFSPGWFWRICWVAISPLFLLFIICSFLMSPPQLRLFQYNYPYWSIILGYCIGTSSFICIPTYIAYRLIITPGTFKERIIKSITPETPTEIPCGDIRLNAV

| SMILES | Ki SERT (SERT) | Ki 5HT2CR (5-HT2CR) | Ki 5-HT2A (5-HT2AR) | SERT binding affinity (in words) (SERT) | further results |
| --- | --- | --- | --- | --- | --- |
| O=C1NCN(c2ccccc2)C12CCN(CCCCc1nc3ccccc3s1)CC2 [Compound 7, 8-(4-(benzo[d]thiazol-2-yl)butyl)-1-phenyl-1,3,8-triazaspiro[4.5]decan-4-one] | MTA | MTA |  |  |  |
| O=C(CCCCN1CCC2(CC1)C(=O)NCN2c1ccccc1)c1nc2ccccc2s1 [Compound 9] |  | MTA |  |  |  |
| O=C1NCN(c2ccccc2)C12CCN(CCCCc1nc3ccccc3o1)CC2 [Compound 10, 8-(4-(benzo[d]oxazol-2-yl)butyl)-1-phenyl-1,3,8-triazaspiro[4.5]decan-4-one] | MTA | MTA | MTA | without significant affinity |  |
| O=C1NCN(c2ccccc2)C12CCN(CCCCc1c[nH]c3ccccc13)CC2 [Compound 11, 8-(4-(1H-indol-3-yl)butyl)-1-phenyl-1,3,8-triazaspiro[4.5]decan-4-one] |  | MTA |  | high affinity | H1R binding affinity (in words) (H1R): moderate binding; 5-HT2CR binding affinity (in words) (5-HT2CR): no significant affinity |
| O=C(CCCCN1CCN(C(c2ccc(F)cc2)c2ccc(F)cc2)CC1)c1nc2ccccc2s1 [Compound 17, 1-(benzo[d]thiazol-2-yl)-5-(4-(bis(4-fluorophenyl)methyl)piperazin-1-yl)pentan-1-one dihydrochloride] |  |  |  |  | pKi ± SE 5-HT7 (5-HT7R): 562.0/ 6.3±0.1 |
| Cl.O=C(CCCCN1C2CCC1CC(O)(c1ccc(Cl)cc1)C2)c1nc2ccccc2s1 (stereo not drawn) [Compound 22, 1-(Benzo[d]thiazol-2-yl)-5-(3-(4-chlorophenyl)-3-hydroxy-8-azabicyclo[3.2.1]octan-8-yl)-pentan-1-one hydrochloride] |  | MTA | MTA |  | Ki 5-HT1A (5-HT1AR): MTA |
